Test results from US11000033B2, “Ketone or oxime compound, and herbicide” (NISSAN CHEMICAL CORPORATION, priority 2014, dated 2021).

Legend:
Amaranthus retroflexus = assay: Test Example 5: herbicidal effect by foliage application, plastic box (symbol N); type: in vivo; conditions: 320 g/ha, 3 weeks after application
Summary of the method: (§1)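 Leaf-applied emulsion, water-diluted to a preset herbicide dose, on two-week-old seedlings raised in a 25° C. to 30° C. greenhouse; injury rated at 3 weeks using earlier criteria.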

Lolium multiflorum Lam. = assay: Test Example 5: herbicidal effect by foliage application, plastic box (symbol K); type: in vivo; conditions: 320 g/ha, 3 weeks after application
Summary of the method: as §1

Scirpus juncoides = assay: Test Example 1: herbicidal activity, application before weed generation in submerged conditions (symbol B); type: in vivo; conditions: application herbicide amount 320 g/ha
Summary of the method: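 In a flooded pot test with alluvial soil, the emulsion-formulated compound was diluted with water to a predetermined amount and applied to the floodwater immediately on the sowing day. Pots were held in a greenhouse at 25–30 °C for 3 weeks before each weed was rated.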

With `CCOC(=O)C(CC)(C(C)=O)C1CC(O)=C(c2c(C)cc(C)cc2C)C1=O` (stereo not drawn) [2-012] the “N: Amaranthus retroflexus, herbicidal effect grade” value (shortened to “N: Amaranthus retroflexus”) (Amaranthus retroflexus) was 0 (Herbicidal ratio of 5% or lower (almost no effect)), the “K: Lolium multiflorum Lam., herbicidal effect grade” value (Lolium multiflorum Lam.) was 3 (Herbicidal ratio of 40% or higher and lower than 70%) and the “Herbicidal effect grade, B: Scirpus juncoides” value (shortened to “Herbicidal effect grade, B”) (Scirpus juncoides) was 0 (Herbicidal ratio of 5% or lower (almost no effect)).
In the case of `CCOC(=O)C(C(=O)c1ccccn1)C1CC(O)=C(c2c(C)cc(C)cc2C)C1=O` (stereo not drawn) [2-013], the “N: Amaranthus retroflexus” value (Amaranthus retroflexus) is reported as 0 (Herbicidal ratio of 5% or lower (almost no effect)), the “K: Lolium multiflorum Lam., herbicidal effect grade” value (Lolium multiflorum Lam.) is reported as 5 (Herbicidal ratio of 90% or more (almost completely withered)) and the “Herbicidal effect grade, B” value (Scirpus juncoides) is reported as 0 (Herbicidal ratio of 5% or lower (almost no effect)).
With `COC(=O)C(C(=O)C1CC1)C1CC(O)=C(c2c(C)cc(C)cc2C)C1=O` (stereo not drawn) [2-014] the “N: Amaranthus retroflexus” value (Amaranthus retroflexus) was 0 (Herbicidal ratio of 5% or lower (almost no effect)), the “K: Lolium multiflorum Lam., herbicidal effect grade” value (Lolium multiflorum Lam.) was 5 (Herbicidal ratio of 90% or more (almost completely withered)) and the “Herbicidal effect grade, B” value (Scirpus juncoides) was 3 (Herbicidal ratio of 40% or higher and lower than 70%).
In the case of `Cc1cc(C)c(C2=C(O)CC(CC(=O)Cc3ccccc3)C2=O)c(C)c1` (stereo not drawn) [2-015], the “N: Amaranthus retroflexus” value (Amaranthus retroflexus) is reported as 0 (Herbicidal ratio of 5% or lower (almost no effect)), the “K: Lolium multiflorum Lam., herbicidal effect grade” value (Lolium multiflorum Lam.) is reported as 5 (Herbicidal ratio of 90% or more (almost completely withered)) and the “Herbicidal effect grade, B” value (Scirpus juncoides) is reported as 4 (Herbicidal ratio of 70% or higher and lower than 90%).
With `Cc1cc(C)c(C2=C(O)CC(CC(=O)C(C)C)C2=O)c(C)c1` (stereo not drawn) [2-016] the “N: Amaranthus retroflexus” value (Amaranthus retroflexus) was 3 (Herbicidal ratio of 40% or higher and lower than 70%), the “K: Lolium multiflorum Lam., herbicidal effect grade” value (Lolium multiflorum Lam.) was 5 (Herbicidal ratio of 90% or more (almost completely withered)) and the “Herbicidal effect grade, B” value (Scirpus juncoides) was 0 (Herbicidal ratio of 5% or lower (almost no effect)).
In the case of `Cc1cc(C)c(C2=C(O)CC(CC(=O)C3CC3)C2=O)c(C)c1` (stereo not drawn) [2-017], the “N: Amaranthus retroflexus” value (Amaranthus retroflexus) is reported as 0 (Herbicidal ratio of 5% or lower (almost no effect)), the “K: Lolium multiflorum Lam., herbicidal effect grade” value (Lolium multiflorum Lam.) is reported as 5 (Herbicidal ratio of 90% or more (almost completely withered)) and the “Herbicidal effect grade, B” value (Scirpus juncoides) is reported as 5 (Herbicidal ratio of 90% or more (almost completely withered)).
In the case of `CC(=O)CC1CC(OC(=O)C(C)(C)C)=C(c2c(C)cc(C)cc2C)C1=O` (stereo not drawn) [2-018], the “N: Amaranthus retroflexus” value (Amaranthus retroflexus) is reported as 0 (Herbicidal ratio of 5% or lower (almost no effect)), the “K: Lolium multiflorum Lam., herbicidal effect grade” value (Lolium multiflorum Lam.) is reported as 4 (Herbicidal ratio of 70% or higher and lower than 90%) and the “Herbicidal effect grade, B” value (Scirpus juncoides) is reported as 2 (Herbicidal ratio of 20% or higher and lower than 40%).
With `CCCC(=O)C(C(=O)OC)C1CC(O)=C(c2c(C)cc(C)cc2C)C1=O` (stereo not drawn) [2-020] the “N: Amaranthus retroflexus” value (Amaranthus retroflexus) was 0 (Herbicidal ratio of 5% or lower (almost no effect)), the “K: Lolium multiflorum Lam., herbicidal effect grade” value (Lolium multiflorum Lam.) was 5 (Herbicidal ratio of 90% or more (almost completely withered)) and the “Herbicidal effect grade, B” value (Scirpus juncoides) was 0 (Herbicidal ratio of 5% or lower (almost no effect)).
In the case of `CCCC(=O)CC1CC(O)=C(c2c(C)cc(C)cc2C)C1=O` (stereo not drawn) [2-021], the “N: Amaranthus retroflexus” value (Amaranthus retroflexus) is reported as 0 (Herbicidal ratio of 5% or lower (almost no effect)), the “K: Lolium multiflorum Lam., herbicidal effect grade” value (Lolium multiflorum Lam.) is reported as 5 (Herbicidal ratio of 90% or more (almost completely withered)) and the “Herbicidal effect grade, B” value (Scirpus juncoides) is reported as 4 (Herbicidal ratio of 70% or higher and lower than 90%).
With `Cc1cc(C)c(C2=C(O)CC(CC(=O)C(C)(C)C)C2=O)c(C)c1` (stereo not drawn) [2-022] the “N: Amaranthus retroflexus” value (Amaranthus retroflexus) was 0 (Herbicidal ratio of 5% or lower (almost no effect)), the “K: Lolium multiflorum Lam., herbicidal effect grade” value (Lolium multiflorum Lam.) was 5 (Herbicidal ratio of 90% or more (almost completely withered)) and the “Herbicidal effect grade, B” value (Scirpus juncoides) was 0 (Herbicidal ratio of 5% or lower (almost no effect)).
In the case of `CCC(C)C(=O)CC1CC(O)=C(c2c(C)cc(C)cc2C)C1=O` (stereo not drawn) [2-024], the “N: Amaranthus retroflexus” value (Amaranthus retroflexus) is reported as 0 (Herbicidal ratio of 5% or lower (almost no effect)), the “K: Lolium multiflorum Lam., herbicidal effect grade” value (Lolium multiflorum Lam.) is reported as 5 (Herbicidal ratio of 90% or more (almost completely withered)) and the “Herbicidal effect grade, B” value (Scirpus juncoides) is reported as 0 (Herbicidal ratio of 5% or lower (almost no effect)).
With `CCOC(=O)C(C(=O)CC1CC1)C1CC(O)=C(c2c(C)cc(C)cc2C)C1=O` (stereo not drawn) [2-025] the “N: Amaranthus retroflexus” value (Amaranthus retroflexus) was 0 (Herbicidal ratio of 5% or lower (almost no effect)), the “K: Lolium multiflorum Lam., herbicidal effect grade” value (Lolium multiflorum Lam.) was 5 (Herbicidal ratio of 90% or more (almost completely withered)) and the “Herbicidal effect grade, B” value (Scirpus juncoides) was 0 (Herbicidal ratio of 5% or lower (almost no effect)).
With `Cc1cc(C)c(C2=C(O)CC(CC(=O)CC3CC3)C2=O)c(C)c1` (stereo not drawn) [2-026] the “N: Amaranthus retroflexus” value (Amaranthus retroflexus) was 0 (Herbicidal ratio of 5% or lower (almost no effect)), the “K: Lolium multiflorum Lam., herbicidal effect grade” value (Lolium multiflorum Lam.) was 5 (Herbicidal ratio of 90% or more (almost completely withered)) and the “Herbicidal effect grade, B” value (Scirpus juncoides) was 3 (Herbicidal ratio of 40% or higher and lower than 70%).
With `Cc1cc(C)c(C2=C(O)CC(CC(=O)C3CCCC3)C2=O)c(C)c1` (stereo not drawn) [2-028] the “N: Amaranthus retroflexus” value (Amaranthus retroflexus) was 0 (Herbicidal ratio of 5% or lower (almost no effect)), the “K: Lolium multiflorum Lam., herbicidal effect grade” value (Lolium multiflorum Lam.) was 5 (Herbicidal ratio of 90% or more (almost completely withered)) and the “Herbicidal effect grade, B” value (Scirpus juncoides) was 0 (Herbicidal ratio of 5% or lower (almost no effect)).
In the case of `Cc1cc(C)c(C2=C(O)CC(CC(=O)C3CCCCC3)C2=O)c(C)c1` (stereo not drawn) [2-030], the “N: Amaranthus retroflexus” value (Amaranthus retroflexus) is reported as 0 (Herbicidal ratio of 5% or lower (almost no effect)), the “K: Lolium multiflorum Lam., herbicidal effect grade” value (Lolium multiflorum Lam.) is reported as 5 (Herbicidal ratio of 90% or more (almost completely withered)) and the “Herbicidal effect grade, B” value (Scirpus juncoides) is reported as 0 (Herbicidal ratio of 5% or lower (almost no effect)).
With `C=CC(=O)CC1CC(O)=C(c2c(C)cc(C)cc2C)C1=O` (stereo not drawn) [2-031] the “N: Amaranthus retroflexus” value (Amaranthus retroflexus) was 0 (Herbicidal ratio of 5% or lower (almost no effect)), the “K: Lolium multiflorum Lam., herbicidal effect grade” value (Lolium multiflorum Lam.) was 5 (Herbicidal ratio of 90% or more (almost completely withered)) and the “Herbicidal effect grade, B” value (Scirpus juncoides) was 4 (Herbicidal ratio of 70% or higher and lower than 90%).
For `Cc1cc(C)c(C2=C(O)CC(CC(=O)c3ccc(F)cc3)C2=O)c(C)c1` (stereo not drawn) [2-032], the “N: Amaranthus retroflexus” value (Amaranthus retroflexus) was 0 (Herbicidal ratio of 5% or lower (almost no effect)), the “K: Lolium multiflorum Lam., herbicidal effect grade” value (Lolium multiflorum Lam.) was 5 (Herbicidal ratio of 90% or more (almost completely withered)) and the “Herbicidal effect grade, B” value (Scirpus juncoides) was 4 (Herbicidal ratio of 70% or higher and lower than 90%).
In the case of `CCC(=O)CCC1CC(O)=C(c2c(C)cc(C)cc2C)C1=O` (stereo not drawn) [5-001], the “N: Amaranthus retroflexus” value (Amaranthus retroflexus) is reported as 0 (Herbicidal ratio of 5% or lower (almost no effect)), the “K: Lolium multiflorum Lam., herbicidal effect grade” value (Lolium multiflorum Lam.) is reported as 5 (Herbicidal ratio of 90% or more (almost completely withered)) and the “Herbicidal effect grade, B” value (Scirpus juncoides) is reported as 0 (Herbicidal ratio of 5% or lower (almost no effect)).
With `CCC(=O)CCC1CC(OC)=C(c2c(C)cc(C)cc2C)C1=O` (stereo not drawn) [5-002] the “N: Amaranthus retroflexus” value (Amaranthus retroflexus) was 0 (Herbicidal ratio of 5% or lower (almost no effect)), the “K: Lolium multiflorum Lam., herbicidal effect grade” value (Lolium multiflorum Lam.) was 0 (Herbicidal ratio of 5% or lower (almost no effect)) and the “Herbicidal effect grade, B” value (Scirpus juncoides) was 0 (Herbicidal ratio of 5% or lower (almost no effect)).
For `CCc1cc(Br)cc(C)c1C1=C(O)CC(CC(C)=NOC)C1=O` (stereo not drawn) [6-001], the “N: Amaranthus retroflexus” value (Amaranthus retroflexus) was 0 (Herbicidal ratio of 5% or lower (almost no effect)), the “K: Lolium multiflorum Lam., herbicidal effect grade” value (Lolium multiflorum Lam.) was 5 (Herbicidal ratio of 90% or more (almost completely withered)) and the “Herbicidal effect grade, B” value (Scirpus juncoides) was 0 (Herbicidal ratio of 5% or lower (almost no effect)). It also gave a melting point of 151 to 153 °C.
In the case of `CCc1cc(Br)cc(C)c1C1=C(O)CC(C(C(=O)OC)C(C)=NOC)C1=O` (stereo not drawn) [6-002], the “N: Amaranthus retroflexus” value (Amaranthus retroflexus) is reported as 0 (Herbicidal ratio of 5% or lower (almost no effect)), the “K: Lolium multiflorum Lam., herbicidal effect grade” value (Lolium multiflorum Lam.) is reported as 5 (Herbicidal ratio of 90% or more (almost completely withered)) and the “Herbicidal effect grade, B” value (Scirpus juncoides) is reported as 0 (Herbicidal ratio of 5% or lower (almost no effect)). The melting point was 184 to 188 °C.
For `CON=C(C)CC1CC(O)=C(c2c(C)cc(Br)cc2C)C1=O` (stereo not drawn) [6-003], the “N: Amaranthus retroflexus” value (Amaranthus retroflexus) was 0 (Herbicidal ratio of 5% or lower (almost no effect)), the “K: Lolium multiflorum Lam., herbicidal effect grade” value (Lolium multiflorum Lam.) was 5 (Herbicidal ratio of 90% or more (almost completely withered)) and the “Herbicidal effect grade, B” value (Scirpus juncoides) was 4 (Herbicidal ratio of 70% or higher and lower than 90%). The melting point was 164 to 166 °C.
With `CON=C(C)CC1CC(O)=C(c2c(C)cc(C(=O)OC)cc2C)C1=O` (stereo not drawn) [6-023] the “N: Amaranthus retroflexus” value (Amaranthus retroflexus) was 0 (Herbicidal ratio of 5% or lower (almost no effect)), the “K: Lolium multiflorum Lam., herbicidal effect grade” value (Lolium multiflorum Lam.) was 5 (Herbicidal ratio of 90% or more (almost completely withered)) and the “Herbicidal effect grade, B” value (Scirpus juncoides) was 0 (Herbicidal ratio of 5% or lower (almost no effect)).
With `CON=C(C)CC1CC(O)=C(c2c(C)cc(C(C)=O)cc2C)C1=O` (stereo not drawn) [6-026] the “N: Amaranthus retroflexus” value (Amaranthus retroflexus) was 0 (Herbicidal ratio of 5% or lower (almost no effect)), the “K: Lolium multiflorum Lam., herbicidal effect grade” value (Lolium multiflorum Lam.) was 5 (Herbicidal ratio of 90% or more (almost completely withered)) and the “Herbicidal effect grade, B” value (Scirpus juncoides) was 0 (Herbicidal ratio of 5% or lower (almost no effect)).
In the case of `CON=C(C)CC1CC(O)=C(c2c(C)cc(C)cc2OC)C1=O` (stereo not drawn) [6-037, 3-hydroxy-2-(2-methoxy-4,6-dimethylphenyl)-5-{2-(methoxyimino)propyl}cyclopent-2-enone], the “N: Amaranthus retroflexus” value (Amaranthus retroflexus) is reported as 5 (Herbicidal ratio of 90% or more (almost completely withered)), the “K: Lolium multiflorum Lam., herbicidal effect grade” value (Lolium multiflorum Lam.) is reported as 5 (Herbicidal ratio of 90% or more (almost completely withered)) and the “Herbicidal effect grade, B” value (Scirpus juncoides) is reported as 5 (Herbicidal ratio of 90% or more (almost completely withered)).
With `CON=C(C)CC1CC(O)=C(c2c(C)cc(C)cc2Br)C1=O` (stereo not drawn) [6-038] the “N: Amaranthus retroflexus” value (Amaranthus retroflexus) was 5 (Herbicidal ratio of 90% or more (almost completely withered)), the “K: Lolium multiflorum Lam., herbicidal effect grade” value (Lolium multiflorum Lam.) was 5 (Herbicidal ratio of 90% or more (almost completely withered)) and the “Herbicidal effect grade, B” value (Scirpus juncoides) was 4 (Herbicidal ratio of 70% or higher and lower than 90%).
